This is an account of results in patent US12049450B2, “Pyridyloxy-carboxylate derivative and preparation method therefor, herbicidal composition, and use” (Qingdao Kingagroot Chemical Compound Co., Ltd., priority 2018, dated 2024).

What all share (assay): Post-emergence test experiment (greenhouse pot, spray at 2-3 leaf stage)
Common to all, as to format: in vivo
Holding throughout (details): 1000 g/ha; post-emergence spray at 2-3 leaf stage; assessed after 3 weeks; fresh weight inhibition rate

For assay [1], the system named is Digitaria sanguinalis. In outline: (§1)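 Activity graded levels 0-5 by fresh-weight inhibition (level 5 above 85%, level 0 below 5%), assessed 3 weeks after treatment. Plants grown in greenhouse pots were sprayed post-emergence at 2-3 leaves using acetone/tween-80 solutions with methyl oleate synergist (1.5 L/ha).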
For assay [2], the system named is Echinochloa crusgalli. In outline: as §1
Assay [3] relates to Abutilon theophrasti. In a few lines:
as §1

The subject of assay [4] is Galium spurium. In outline:
as §1

For assay [5], the system named is Monochoria vaginalis. In a few lines:
as §1

Consider `CC(Oc1nc(F)c(Cl)c(N)c1Cl)C(=O)OCc1ccc(Br)cc1` (stereo not shown) [Compound 207], for which the “Activity level (growth inhibition rate) Digitaria sanguinalis” value in assay [1] is recorded as 5 (Level 5: the growth inhibition rate is greater than 85%). Also, in assay [2], the “Activity level (growth inhibition rate) Echinochloa crusgalli” value is 5 (Level 5: the growth inhibition rate is greater than 85%). In assay [3], the “Activity level (growth inhibition rate) Abutilon theophrasti” value is recorded as 5 (Level 5: the growth inhibition rate is greater than 85%). Further, the “Activity level (growth inhibition rate) Galium spurium” value in assay [4] is recorded as 5 (Level 5: the growth inhibition rate is greater than 85%). Also, the “Activity level (growth inhibition rate) Monochoria Vaginalis” value in assay [5] is reported as 5 (Level 5: the growth inhibition rate is greater than 85%).
Take `CC(Oc1nc(F)c(Cl)c(N)c1Cl)C(=O)OCc1ccccc1C(F)(F)F` (stereo not shown) [Compound 208]: the “Activity level (growth inhibition rate) Digitaria sanguinalis” value in assay [1] is listed as 5 (Level 5: the growth inhibition rate is greater than 85%). Further, the “Activity level (growth inhibition rate) Echinochloa crusgalli” value in assay [2] is listed as 5 (Level 5: the growth inhibition rate is greater than 85%). Moreover, the “Activity level (growth inhibition rate) Abutilon theophrasti” value in assay [3] is recorded as 5 (Level 5: the growth inhibition rate is greater than 85%). Moreover, the “Activity level (growth inhibition rate) Galium spurium” value in assay [4] was 5 (Level 5: the growth inhibition rate is greater than 85%). The “Activity level (growth inhibition rate) Monochoria Vaginalis” value in assay [5] is reported as 5 (Level 5: the growth inhibition rate is greater than 85%).
As for `CC(Oc1nc(F)c(Cl)c(N)c1Cl)C(=O)OCc1cccc(C(F)(F)F)c1` (stereo not shown) [Compound 209], the “Activity level (growth inhibition rate) Digitaria sanguinalis” value in assay [1] is 5 (Level 5: the growth inhibition rate is greater than 85%). For the same compound, the “Activity level (growth inhibition rate) Echinochloa crusgalli” value in assay [2] is 5 (Level 5: the growth inhibition rate is greater than 85%). For the same compound, the “Activity level (growth inhibition rate) Abutilon theophrasti” value in assay [3] is listed as 5 (Level 5: the growth inhibition rate is greater than 85%). The “Activity level (growth inhibition rate) Galium spurium” value in assay [4] is 5 (Level 5: the growth inhibition rate is greater than 85%). In addition, the “Activity level (growth inhibition rate) Monochoria Vaginalis” value in assay [5] is on record as 5 (Level 5: the growth inhibition rate is greater than 85%).
For `CC(Oc1nc(F)c(Cl)c(N)c1Cl)C(=O)OCc1ccc(C(F)(F)F)cc1` (stereo not shown) [Compound 210], the “Activity level (growth inhibition rate) Digitaria sanguinalis” value in assay [1] is 5 (Level 5: the growth inhibition rate is greater than 85%). The “Activity level (growth inhibition rate) Echinochloa crusgalli” value in assay [2] is listed as 5 (Level 5: the growth inhibition rate is greater than 85%). For the same compound, the “Activity level (growth inhibition rate) Abutilon theophrasti” value in assay [3] is listed as 5 (Level 5: the growth inhibition rate is greater than 85%). Besides, the “Activity level (growth inhibition rate) Galium spurium” value in assay [4] is given as 5 (Level 5: the growth inhibition rate is greater than 85%). In addition, in assay [5], the “Activity level (growth inhibition rate) Monochoria Vaginalis” value was 5 (Level 5: the growth inhibition rate is greater than 85%).
Take `CC(Oc1nc(F)c(Cl)c(N)c1Cl)C(=O)OCc1cccc2ccccc12` (stereo not shown) [Compound 211]: the “Activity level (growth inhibition rate) Digitaria sanguinalis” value in assay [1] is listed as 5 (Level 5: the growth inhibition rate is greater than 85%). Further, in assay [2], the “Activity level (growth inhibition rate) Echinochloa crusgalli” value is given as 5 (Level 5: the growth inhibition rate is greater than 85%). The “Activity level (growth inhibition rate) Abutilon theophrasti” value in assay [3] is recorded as 5 (Level 5: the growth inhibition rate is greater than 85%). The “Activity level (growth inhibition rate) Galium spurium” value in assay [4] was 5 (Level 5: the growth inhibition rate is greater than 85%). The “Activity level (growth inhibition rate) Monochoria Vaginalis” value in assay [5] is given as 5 (Level 5: the growth inhibition rate is greater than 85%).
Regarding `CC(Oc1nc(F)c(Cl)c(N)c1Cl)C(=O)OCc1ccco1` (stereo not shown) [Compound 212], the “Activity level (growth inhibition rate) Digitaria sanguinalis” value in assay [1] is 5 (Level 5: the growth inhibition rate is greater than 85%). Moreover, the “Activity level (growth inhibition rate) Echinochloa crusgalli” value in assay [2] is 5 (Level 5: the growth inhibition rate is greater than 85%). Further, the “Activity level (growth inhibition rate) Abutilon theophrasti” value in assay [3] was 5 (Level 5: the growth inhibition rate is greater than 85%). For the same compound, the “Activity level (growth inhibition rate) Galium spurium” value in assay [4] is listed as 5 (Level 5: the growth inhibition rate is greater than 85%). The “Activity level (growth inhibition rate) Monochoria Vaginalis” value in assay [5] is on record as 5 (Level 5: the growth inhibition rate is greater than 85%).
Turning to `CC(Oc1nc(F)c(Cl)c(N)c1Cl)C(=O)OCc1ccoc1` (stereo not shown) [Compound 213], the “Activity level (growth inhibition rate) Digitaria sanguinalis” value in assay [1] is reported as 5 (Level 5: the growth inhibition rate is greater than 85%). Besides, the “Activity level (growth inhibition rate) Echinochloa crusgalli” value in assay [2] is 5 (Level 5: the growth inhibition rate is greater than 85%). In assay [3], the “Activity level (growth inhibition rate) Abutilon theophrasti” value is listed as 5 (Level 5: the growth inhibition rate is greater than 85%). Also, in assay [4], the “Activity level (growth inhibition rate) Galium spurium” value was 5 (Level 5: the growth inhibition rate is greater than 85%). In addition, the “Activity level (growth inhibition rate) Monochoria Vaginalis” value in assay [5] is 5 (Level 5: the growth inhibition rate is greater than 85%).
Turning to `CC(Oc1nc(F)c(Cl)c(N)c1Cl)C(=O)OCc1cccs1` (stereo not shown) [Compound 214], in assay [1], the “Activity level (growth inhibition rate) Digitaria sanguinalis” value is 5 (Level 5: the growth inhibition rate is greater than 85%). Further, the “Activity level (growth inhibition rate) Echinochloa crusgalli” value in assay [2] is recorded as 5 (Level 5: the growth inhibition rate is greater than 85%). For the same compound, the “Activity level (growth inhibition rate) Abutilon theophrasti” value in assay [3] is reported as 5 (Level 5: the growth inhibition rate is greater than 85%). The “Activity level (growth inhibition rate) Galium spurium” value in assay [4] is 5 (Level 5: the growth inhibition rate is greater than 85%). Besides, in assay [5], the “Activity level (growth inhibition rate) Monochoria Vaginalis” value is 5 (Level 5: the growth inhibition rate is greater than 85%).
In the case of `CC(Oc1nc(F)c(Cl)c(N)c1Cl)C(=O)OCc1ccsc1` (stereo not shown) [Compound 215], in assay [1], the “Activity level (growth inhibition rate) Digitaria sanguinalis” value was 5 (Level 5: the growth inhibition rate is greater than 85%). Also, the “Activity level (growth inhibition rate) Echinochloa crusgalli” value in assay [2] is 5 (Level 5: the growth inhibition rate is greater than 85%). Also, the “Activity level (growth inhibition rate) Abutilon theophrasti” value in assay [3] is listed as 5 (Level 5: the growth inhibition rate is greater than 85%). The “Activity level (growth inhibition rate) Galium spurium” value in assay [4] was 5 (Level 5: the growth inhibition rate is greater than 85%). For the same compound, in assay [5], the “Activity level (growth inhibition rate) Monochoria Vaginalis” value is reported as 5 (Level 5: the growth inhibition rate is greater than 85%).
Regarding `CC(Oc1nc(F)c(Cl)c(N)c1Cl)C(=O)OCc1ccnn1C` (stereo not shown) [Compound 216], the “Activity level (growth inhibition rate) Digitaria sanguinalis” value in assay [1] is 5 (Level 5: the growth inhibition rate is greater than 85%). Moreover, the “Activity level (growth inhibition rate) Echinochloa crusgalli” value in assay [2] is on record as 5 (Level 5: the growth inhibition rate is greater than 85%). Moreover, the “Activity level (growth inhibition rate) Abutilon theophrasti” value in assay [3] is on record as 5 (Level 5: the growth inhibition rate is greater than 85%). Further, the “Activity level (growth inhibition rate) Galium spurium” value in assay [4] is reported as 5 (Level 5: the growth inhibition rate is greater than 85%). Besides, in assay [5], the “Activity level (growth inhibition rate) Monochoria Vaginalis” value is 5 (Level 5: the growth inhibition rate is greater than 85%).
Consider `CC(Oc1nc(F)c(Cl)c(N)c1Cl)C(=O)OCc1cnn(C)c1` (stereo not shown) [Compound 217], for which the “Activity level (growth inhibition rate) Digitaria sanguinalis” value in assay [1] is reported as 5 (Level 5: the growth inhibition rate is greater than 85%). Besides, the “Activity level (growth inhibition rate) Echinochloa crusgalli” value in assay [2] is recorded as 5 (Level 5: the growth inhibition rate is greater than 85%). In addition, the “Activity level (growth inhibition rate) Abutilon theophrasti” value in assay [3] was 5 (Level 5: the growth inhibition rate is greater than 85%). The “Activity level (growth inhibition rate) Galium spurium” value in assay [4] is reported as 5 (Level 5: the growth inhibition rate is greater than 85%). The “Activity level (growth inhibition rate) Monochoria Vaginalis” value in assay [5] is recorded as 5 (Level 5: the growth inhibition rate is greater than 85%).
